Results reported in patent publication US10035800B2 (AbbVie Inc., priority 2013, dated 2018).

Assays:
BRD4 (BDII_E352-M457) = molecular target: T1, BRD4 (BDII_E352-M457) (Homo sapiens, UniProt O60885); experiment: TR-FRET bromodomain binding assay, second bromodomain of BRD4; settings: TR-FRET assay protocol G (compound 0.92 μM-15 pM); 30 nM probe
T1 construct: protocol; made in house
In short: (§1)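 Displacement of a fluorescent Alexa647 BET-inhibitor probe (100 nM with BDI, 30 nM with BDII) from His-tagged BRD4 bromodomains was monitored by europium TR-FRET after one hour at room temperature. Data were normalized to no-compound and 1 μM unlabelled probe controls, fitted with a four-parameter logistic, and IC50s converted to Ki.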

BRD4 (BDI_K57-E168) = molecular target: T2, BRD4 (BDI_K57-E168) (Homo sapiens, UniProt O60885); experiment: TR-FRET bromodomain binding assay, first bromodomain of BRD4; settings: TR-FRET assay protocol G (compound 0.92 μM-15 pM); 100 nM probe
T2 construct: BD1: amino acids K57-E168; made in house
In short: as §1

[1] = system: breast cancer cell line MX-1; experiment: MX-1 cell line proliferation assay; format: cell-based; settings: MX-1 cells, 3-day proliferation assay, Cell Titer Glo; read-out: Cellular proliferation: EC50
Method: MX-1 Cell Line Proliferation Assay
The impact of compounds of the Examples on cancer cell proliferation was determined using the breast cancer cell line MX-1 (ATCC) in a 3-day proliferation assay and the data are reported in Table 1. MX-1 cells were maintained in RPMI 1640 medium (Sigma) supplemented with 10% FBS at 37 C.° and an atmosphere of 5% CO2. For compound testing, MX-1 cells were plated in 96-well black bottom plates at a density of 5000 cells/well in 90 μL of culture media and incubated at 37° overnight to allow cell adhesion and spreading. Compound dilution series were prepared in DMSO via a 3-fold serial dilution from 3 mM to 0.1 μM. The DMSO dilution series were then diluted 1:100 in phosphate buffered saline, and 10 μL of the resulted solution were added to the appropriate wells of the MX-1 cell plate. The final compound concentrations in the wells were 3, 1, 0.3, 0.1, 0.03, 0.01, 0.003, 0.001, 0.0003, and 0.0001 μM or 1, 0.3, 0.1, 0.03, 0.01, 0.003, 0.001, 0.0003, 0.0001, and 0.00003 μM.
Luminescence readings from the Cell Titer Glo assay were normalized to the DMSO treated cells and analyzed using the GraphPad Prism software with sigmoidal curve fitting to obtain EC50s. The minimum significant ratio (MSR) was determined to evaluate assay reproducibility (Eastwood et al., (2006) J Biomol Screen, 11: 253-261). The overall MSR was determined to be 2.1 and a moving MSR (last six run MSR overtime) has been <2.

Molecule	Ki (BRD4 (BDII_E352-M457)) [nM]	Ki (BRD4 (BDI_K57-E168)) [nM]	EC50 [1] [nM]
10-methyl-7-((methylsulfonyl)methyl)-4-(piperidin-4-ylmethyl)-3,4-dihydro-1H-1,4,10-triazadibenzo[cd,f]azulen-11(10H)-one [Example 37]	2.4	3.36	> 1000
Cn1cc2c3c(c[nH]c3c1=O)C(c1cccc3ccccc13)N(c1ccc(F)cc1F)c1ccc(CS(C)(=O)=O)cc1-2 (stereo not drawn) [Example 217, 4-(2,4-difluorophenyl)-10-methyl-7-((methylsulfonyl)methyl)-3-(naphthalen-1-yl)-3,4-dihydro-1H-1,4,10-triazadibenzo[cd,f]azulen-11(10H)-one]	42.6	193	> 1000
Cn1cc2c3c(c[nH]c3c1=O)C(CCCOc1ccccc1)N(c1ccc(F)cc1F)c1ccc(CS(C)(=O)=O)cc1-2 (single isomer, unassigned) [Example 144]	18.8	> 238	318
Cn1cc2c3c(c[nH]c3c1=O)C(C(=O)NCC1CC1)N(c1ccc(F)cc1F)c1ccc(CS(C)(=O)=O)cc1-2 (stereo not drawn) [Example 164, N-(cyclopropylmethyl)-4-(2,4-difluorophenyl)-10-methyl-7-((methylsulfonyl)methyl)-11-oxo-3,4,10,11-tetrahydro-1H-1,4,10-triazadibenzo[cd,f]azulene-3-carboxamide]	30	41.7	72.5
Cn1cc2c3c(c[nH]c3c1=O)CN(CC(C)(C)CN1CCCC1)c1ccc(CS(C)(=O)=O)cc1-2 [Example 178]	4.38	4.36	123

Further lines, results first:

Ki (BRD4 (BDII_E352-M457)) [nM]	Ki (BRD4 (BDI_K57-E168)) [nM]	EC50 [1] [nM]	Molecule
3.35	11	80.7	Cn1cc(-c2[nH]c3c(=O)n(C)cc4c3c2CN(c2ccc(F)cc2F)c2ccc(S(C)(=O)=O)cc2-4)cn1 [Example 270, 4-(2,4-difluorophenyl)-10-methyl-2-(1-methyl-1H-pyrazol-4-yl)-7-(methylsulfonyl)-3,4-dihydro-1H-1,4,10-triazadibenzo[cd,f]azulen-11(10H)-one]
1.18	7.94	134	Cn1cc2c3c(c[nH]c3c1=O)C(CCN1C(=O)c3ccccc3C1=O)N(c1ccc(F)cc1F)c1ccc(CS(C)(=O)=O)cc1-2 (racemic) [Example 227, 2-(2-(4-(2,4-difluorophenyl)-10-methyl-7-((methylsulfonyl)methyl)-11-oxo-3,4,10,11-tetrahydro-1H-1,4,10-triazadibenzo[cd,f]azulen-3-yl)ethyl)isoindoline-1,3-dione]
2.21	1.99	8.63	Cn1cc2c3c(c[nH]c3c1=O)CN(CC1CC1)c1c(F)cc(F)cc1-2 [Example 49, 4-(cyclopropylmethyl)-5,7-difluoro-10-methyl-3,4-dihydro-1H-1,4,10-triazadibenzo[cd,f]azulen-11(10H)-one]
3.75	3.92	141	CCNC(=O)N1Cc2c[nH]c3c(=O)n(C)cc(c23)-c2cc(CS(C)(=O)=O)ccc21 [Example 45, N-ethyl-10-methyl-7-((methylsulfonyl)methyl)-11-oxo-10,11-dihydro-1H-1,4,10-triazadibenzo[cd,f]azulene-4(3H)-carboxamide]
1.14	1.01	1.38	Cn1cc2c3c(c[nH]c3c1=O)CN(c1ccc(F)cc1)c1ncc(F)cc1-2 [Example 32, 7-fluoro-4-(4-fluorophenyl)-10-methyl-3,4-dihydro-1H-1,4,5,10-tetraazadibenzo[cd,f]azulen-11(10H)-one]
10.2	4.19	28.3	COCC(C)N1Cc2c[nH]c3c(=O)n(C)cc(c23)-c2cc(CS(C)(=O)=O)ccc21 (stereo not drawn) [Example 185, 4-(1-methoxypropan-2-yl)-10-methyl-7-((methylsulfonyl)methyl)-3,4-dihydro-1H-1,4,10-triazadibenzo[cd,f]azulen-11(10H)-one]
